Test results: PubChem BioAssay AID588439 (The Scripps Research Institute Molecular Screening Center, 2011)
Activity calls are given as the source filed them.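 The calls were made as follows: active = EC50 at or below 10 µM; inactive = EC50 above 10 µM.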

Biological target: Insulin-degrading enzyme (Homo sapiens) (UniProt P14735)
Assay: activators of endogenous IDE in HEK cells, dose response, cell-based, fluorescence polarization (AID 588439)
Conditions: FAbeta-B cleavage fluorescence polarization

Sequence of Insulin-degrading enzyme (Homo sapiens) (P14735 whole entry, looked up): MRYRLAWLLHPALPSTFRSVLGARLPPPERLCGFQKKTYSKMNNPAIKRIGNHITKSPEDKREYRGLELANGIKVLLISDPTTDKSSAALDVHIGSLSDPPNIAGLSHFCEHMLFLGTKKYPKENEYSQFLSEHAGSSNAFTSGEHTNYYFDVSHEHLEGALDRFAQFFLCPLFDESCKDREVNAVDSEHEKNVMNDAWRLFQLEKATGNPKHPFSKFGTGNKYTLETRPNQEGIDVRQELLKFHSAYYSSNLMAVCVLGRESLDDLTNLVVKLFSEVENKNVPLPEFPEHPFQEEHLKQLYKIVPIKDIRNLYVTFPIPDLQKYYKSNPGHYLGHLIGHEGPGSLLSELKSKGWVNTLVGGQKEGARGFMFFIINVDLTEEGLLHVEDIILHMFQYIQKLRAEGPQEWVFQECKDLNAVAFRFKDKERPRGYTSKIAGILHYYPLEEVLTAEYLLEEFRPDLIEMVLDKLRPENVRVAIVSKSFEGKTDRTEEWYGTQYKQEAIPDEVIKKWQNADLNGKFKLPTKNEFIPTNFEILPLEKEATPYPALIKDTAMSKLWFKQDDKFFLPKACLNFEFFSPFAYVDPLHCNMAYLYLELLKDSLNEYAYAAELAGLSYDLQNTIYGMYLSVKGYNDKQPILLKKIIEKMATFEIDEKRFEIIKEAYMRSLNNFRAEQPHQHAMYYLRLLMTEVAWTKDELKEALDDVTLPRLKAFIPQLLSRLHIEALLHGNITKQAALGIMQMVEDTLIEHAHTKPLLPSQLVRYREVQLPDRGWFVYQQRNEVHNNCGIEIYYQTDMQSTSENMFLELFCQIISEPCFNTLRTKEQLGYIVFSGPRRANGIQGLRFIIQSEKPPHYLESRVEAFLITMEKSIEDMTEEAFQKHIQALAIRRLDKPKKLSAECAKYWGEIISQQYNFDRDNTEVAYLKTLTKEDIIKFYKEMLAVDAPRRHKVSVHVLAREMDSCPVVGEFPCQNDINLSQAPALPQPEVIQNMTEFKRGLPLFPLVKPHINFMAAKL

EC50, inactive:
C#CCOCCOCCOCCNc1nc(N2CCN(C(=O)CCCCCCCCCCNC(=O)[C@H](CO)n3cc(CCCSC)nn3)CC2)nc(N2CCN(C(=O)CCCCCCCCCCNC(=O)[C@H](CCCCN)n3cc(CCO)nn3)CC2)n1 > 54.7 µM
C#CCOCCOCCOCCNc1nc(N2CCN(C(=O)CCCCCCCCCCNC(=O)[C@H](CCCCN)n3cc(CCO)nn3)CC2)nc(N2CCN(C(=O)CCCCCCCCCCNC(=O)[C@H](CCCN=C(N)N)n3cc(C[C@@H](C)CC)nn3)CC2)n1 > 54.7 µM
C#CCOCCOCCOCCNc1nc(N2CCN(C(=O)CCCCCCCCCCNC(=O)Cn3cc(C[C@@H](C)O)nn3)CC2)nc(N2CCN(C(=O)CCCCCCCCCCNC(=O)[C@H](CCCN=C(N)N)n3cc(C[C@@H](C)CC)nn3)CC2)n1 > 54.7 µM
C#CCOCCOCCOCCNc1nc(N2CCN(C(=O)CCCCCCCCCCNC(=O)Cn3cc(CCCCCN)nn3)CC2)nc(N2CCN(C(=O)CCCCCCCCCCNC(=O)Cn3cc(C[C@@H](C)O)nn3)CC2)n1 > 54.7 µM
